# Measurements from PMC8398766, “Do Small Molecules Activate the TrkB Receptor in the Same Manner as BDNF? Limitations of Published TrkB Low Molecular Agonists and Screening for Novel TrkB Orthosteric Agonists” (Pharmaceuticals, 2021).
# Where two headings read alike, the source gives them in different places.
# Tests used:
# Caco-2 monolayer = assay: Caco-2 passive permeability; settings: for Papp,AB: Caco-2, apical to basal; for Papp,AB / Papp,BA: 2 h; for Papp,BA: Caco-2, basal to apical
# [1] = Metabolic stability in mouse liver microsomes; settings: for Clint MLM: 1 μM, phase I; for Metabolic stability in MLM (classification): compared with verapamil
# PAMPA = settings: for PAMPA: 10 μM, 4 h
# TrkB receptor = molecular target: T1, TrkB receptor (Rattus norvegicus, UniProt Q63604); assay: ELFI TrkB phosphorylation, orthosteric agonist mode, SN56 T48 cell line; type: cell-based; settings: 0.125–100 μM, 15 min
# T1 construct: host or cells: SN56 T48 cell line
# T1 sequence (Q63604 32-821): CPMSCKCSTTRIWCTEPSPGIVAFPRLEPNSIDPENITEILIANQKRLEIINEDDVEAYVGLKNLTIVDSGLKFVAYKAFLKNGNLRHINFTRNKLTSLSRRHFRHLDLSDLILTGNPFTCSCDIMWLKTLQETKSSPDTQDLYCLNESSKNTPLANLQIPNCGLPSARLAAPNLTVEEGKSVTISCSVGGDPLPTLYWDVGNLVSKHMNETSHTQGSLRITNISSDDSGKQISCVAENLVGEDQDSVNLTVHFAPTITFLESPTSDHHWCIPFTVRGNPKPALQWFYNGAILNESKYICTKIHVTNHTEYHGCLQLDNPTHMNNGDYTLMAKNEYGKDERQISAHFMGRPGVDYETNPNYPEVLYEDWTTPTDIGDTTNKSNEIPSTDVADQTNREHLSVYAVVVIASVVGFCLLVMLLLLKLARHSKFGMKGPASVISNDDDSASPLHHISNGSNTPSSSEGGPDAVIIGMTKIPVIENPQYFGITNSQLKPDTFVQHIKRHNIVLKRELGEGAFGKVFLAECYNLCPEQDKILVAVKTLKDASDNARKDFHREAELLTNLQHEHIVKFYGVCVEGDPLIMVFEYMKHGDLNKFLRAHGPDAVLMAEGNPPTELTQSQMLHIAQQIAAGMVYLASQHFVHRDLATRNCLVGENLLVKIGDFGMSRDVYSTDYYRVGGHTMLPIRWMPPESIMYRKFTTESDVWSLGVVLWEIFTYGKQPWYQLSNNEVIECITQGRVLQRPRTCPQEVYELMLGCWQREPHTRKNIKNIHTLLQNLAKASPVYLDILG
# Protocol: The SN56 T48 cell line with stable overexpression of the TrkB receptor was purchased from Emory University (Atlanta, GA, USA) and cultivated according to the protocol described in Jang et al., 2010 [12]. The cell lines were cultivated with the following reagents: DMEM High Glucose, fetal bovine serum (FBS), Penicillin-Streptomycin Solution 100×, and Trypsin-EDTA 1×; all were purchased from Biowest, and G418 was from ThermoFisher Scientific. For the ELFI experiments, cells were seeded (8000/well) on a PDL-treated 96-well plate (BioCoat™, Corning Inc., Corning, NY, USA) and 6-well plate (400,000/well) for lysate collection and immunoblot analysis.
# In the orthosteric agonist mode experiments, starved cells (5 h) were treated with compounds (0.125–100 μM; volume, 100 μL/well) or BDNF (0.01–10 nM; volume, 100 μL/well) dissolved in culture medium. In the allosteric modulation mode experiments, starved cells (5 h) were treated with final compound concentrations of 3, 10, and 30 μM; volume, 50 μL/well) in the presence of a rising concentration of BDNF (final concentration in well, 0.15–5 nM; volume, 50 μL/well). Corresponding treatment with DMSO (v/v) was performed for a control. Cells were treated for 15 min in both the orthosteric and allosteric modulation mode experiments.
# The analysis of TrkB receptor activation was performed using the ELFI method adapted from Boltayev et al. (2017) with some modifications. After compound treatment, experiments were stopped by fixing cells with 10% buffered formalin (Kolchem, Lodz, Poland) for 20 min (volume, 100 μL/well). Afterwards, cells were permeabilized with washing buffer (TBS+ 0.1% Tween20) for 15 min, and endogenous peroxidases were quenched by 20 min of incubation with 1% H2O2 dissolved in TBS (each solution: volume, 100 μL/well). Epitopes were blocked with 10% BSA (Biowest) dissolved in washing buffer for 2 h (volume, 100 μL/well) and incubated with anti-pTrkB (Tyr707) primary antibody (Cell Signaling Technology, Danvers, MA, USA) diluted in washing buffer (1:500; overnight at 4 °C; volume, 100 μL/well). After repeated washing, cells were incubated with HRP-linked anti-rabbit antibody (Cell Signaling Technology) for 2 h (1:1000; RT; volume, 100 μL/well) and washed. The cells were then incubated with 100 μL of ImmunoCruz™ Western Blotting Luminol (Santa Cruz Biotechnology, Dallas, TX, USA) for 1 min in the dark, and the signals were measured using a microplate luminometer (VICTOR Light 1420-060, PerkinElmer®, Waltham, MA, USA). For non-specific binding, cells were treated, with the exception of primary antibody.
# [2] = Metabolic stability in human liver microsomes; settings: for Clint HLM: 1 μM, phase I; for Metabolic stability in HLM (classification): compared with verapamil
# [3] = Chemical stability pH 7.4; type: physicochemical; settings: pH = 7.4, 4 h
# exTrkB = molecular target: T2, exTrkB (Homo sapiens, UniProt Q16620); assay: MST binding affinity (Kd) determination
# T2 construct: human TrkB receptor (exTrkB), residues 1−430, was cloned into the pCMV2 expression vector; made in house; host or cells: ExpiCHO-S cells
# T2 sequence (Q16620 32-430): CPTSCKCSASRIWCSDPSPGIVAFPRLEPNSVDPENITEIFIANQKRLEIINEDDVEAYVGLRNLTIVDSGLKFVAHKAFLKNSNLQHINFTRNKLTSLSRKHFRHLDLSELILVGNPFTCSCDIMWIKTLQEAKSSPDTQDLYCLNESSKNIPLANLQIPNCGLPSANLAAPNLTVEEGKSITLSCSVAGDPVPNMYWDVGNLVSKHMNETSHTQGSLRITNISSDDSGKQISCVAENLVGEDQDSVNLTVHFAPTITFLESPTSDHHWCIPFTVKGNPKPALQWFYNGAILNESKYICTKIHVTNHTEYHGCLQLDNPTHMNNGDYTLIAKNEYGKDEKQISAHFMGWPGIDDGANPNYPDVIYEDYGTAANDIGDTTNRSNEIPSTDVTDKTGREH
# Protocol: The gene encoding the extracellular domain of the human TrkB receptor (exTrkB), residues 1−430, was cloned into the pCMV2 expression vector. Protein expression was performed in suspension-cultivated mammalian ExpiCHO-S cells using the ExpiFectamine (Thermo Scientific, Thermo Fisher Scientific, Waltham, MA, USA) transfection reagent. The secreted protein was purified using a four-step protocol. Clarified culture medium was precipitated with ammonium sulfate added to a final concentration of 1.5 M and centrifuged (235,000× g, 60 min at 4 °C). The supernatant after centrifugation was applied on a HiTrap Phenyl column (GE Healthcare, Chicago, IL, USA) equilibrated with buffer A (25 mM Tris, 1 mM DTT; pH 7.5) with 1.5 M ammonium sulfate. Bound proteins were eluted with a linear gradient of buffer A. The eluted proteins were dialyzed overnight in buffer A and loaded on a CaptoQ ImpRes column (GE Healthcare) equilibrated with buffer A with 50 mM NaCl. The bound proteins were eluted with a linear gradient of buffer A with 1 M NaCl. The fractions containing exTrkB protein were pooled, and MnCl2 and CaCl2 (1mM final concentration each) were added. The sample was purified on a HiTrap Con A 4B column (GE Healthcare) equilibrated with buffer B (25 mM Tris, 0.5 M NaCl, 1 mM MnCl2, 1 mM CaCl2; pH 7.5) and eluted with buffer C (25 mM Tris, 0.1 M NaCl, 0.4 M α-D-glucopyranoside; pH 6.5). To improve the protein recovery, buffer C flow was paused nine times during elution. The eluted fractions were concentrated and purified by size-exclusion chromatography on a HiLoad 16/600 Superdex 200 column (GE Healthcare) in buffer A with 0.5 M NaCl. The protein samples were concentrated to 1 mg/mL, and buffer was exchanged (PBS; pH 7.4). Samples were frozen in liquid nitrogen and stored at −80 °C. The protein purity was estimated by SDS–PAGE followed by Coomassie Brilliant Blue staining. The protein concentration was determined from the absorption at 280 nm using an UV NanoDrop 1000 spectrophotometer (Thermo Scientific).
# The exTrkB was labeled with a Monolith Protein Labeling Kit RED-NHS 2nd Generation (NanoTemper Technologies GmbH, Munich, Germany) according to the manufacturer’s protocol. The labelling efficiency was always determined spectrophotometrically with NanoPhotometer® NP80 (Impel) in line with the manufacturer’s recommendations. Labelled exTrkB protein was aliquoted and stored at −80 °C to avoid repeated freeze–thaw cycles. Before analysis, the exTrkB protein was thawed on ice and diluted with MST buffer (50 mM Tris pH = 8; 150 mM NaCl; 10 mM MgCl2; 0.1% Tween20) to the desired concentration.
# For primary screening (single-point MST experiments for signal amplitude determination), each of the 987 screened compounds were diluted in MST buffer + 0.1% Tween20 to a final concentration of 0.5 mM. The tested compounds were mixed with exTrkB solution (the final concentration of exTrkB was 20 nM) and centrifuged (10,000× g, 4 min at 4 °C) to eliminate protein and compound aggregates. Before loading to capillaries (Monolith NT.115 Capillaries, NanoTemper Technologies GmbH), the samples were incubated for 5 min at 25 °C and then placed into the MST apparatus (Monolith, NanoTemper Technologies GmbH). The experiments were performed using nano-blue excitation, LED light adjusted to 20% excitation power, and MST power set to medium, and the fluorescence signal during thermophoresis was detected after 30 s. Single-point MST experiments were performed by the determination of the amplitude signal between the unbound and bound state between the molecule and exTrkB, which was analyzed using the MO.Control Software version 1.6 (NanoTemper Technologies GmbH). A reference sample containing only exTrkB and the equivalent DMSO concentration (v/v) was included in each individual MST experiment. At least three technical replicates were prepared for each of the tested compounds. A binding affinity study was performed for 113 of the selected compounds at 16 concentration points. […]
# [4] = pH 7.4
# [5] = Kinetic solubility (shake-flask); settings: pH 7.4, 4 h, 25 °C
# [6] = Caco-2 passive permeability; settings: human, Caco-2, with 5 μM elacridar and 20 μM cyclosporine A
# physchem = settings: 25 °C, pH 7.4, aqueous buffer, kinetic from dmso stock
# [7] = molecular target: extracellular domain of the human TrkB receptor (exTrkB), residues 1-430 (human) (UniProt Q16620)
# Sequence of extracellular domain of the human TrkB receptor (exTrkB), residues 1-430 (human) (Q16620 32-430): as above
# [8] = molecular target: extracellular domain of the human TrkB receptor (exTrkB), residues 1-430 (human) (UniProt Q16620); assay: MST; exTrkB labelled with RED-NHS, 20 nM; ligand titrated at 16 concentration points; MST buffer (50 mM Tris pH 8, 150 mM NaCl, 10 mM MgCl2, 0.1% Tween20); 5 min at 25 °C before loading; Kd binding model
Compound,"Papp,AB (Caco-2 monolayer)","Papp,BA (Caco-2 monolayer)",Clint MLM [1],Metabolic stability in MLM (classification) [1],PAMPA (PAMPA),Orthosteric activity (induction of TrkB phosphorylation) (TrkB receptor),Clint HLM [2],Metabolic stability in HLM (classification) [2],Chemical Stability [% of Degradation] [3],Binding to the exTrkB receptor (exTrkB),Kinetic Solubility [4],Kinetic Solubility [5],also measured
CC(C)CCNc1ncccc1C(=O)N1CCN(Cc2ccccc2)CC1 [NSI-189],28.23 10^−6·cm/s,13.22 10^−6·cm/s,1316.7 μL·min^−1·mgprotein^−1,highly unstable,8.91 10^−6·cm/s,did not observe any orthosteric activity,466.6 μL·min^−1·mgprotein^−1,highly unstable,0.65%,not observed,500 µM,,Permeability in Caco-2 system (good permeability) (Caco-2 monolayer): > 10^−6 cm/s; Permeability in PAMPA assay (good permeability) (PAMPA): > 10^−6 cm/s
O=C(NCCO)c1cc(C(=O)NCCO)cc(C(=O)NCCO)c1 [LM22-A4],,0.12 10^−6·cm/s,,very good metabolic stability,0.01 10^−6·cm/s,did not observe any orthosteric activity,3.7 μL·min^−1·mgprotein^−1,very good metabolic stability,Stable,not observed,,397 µM,
"O=c1cc(-c2cccc(O)c2)oc2c(O)c(O)ccc12 [7,8,3′-THF, 7,8,3′-trihydroxyflavone]",,,,moderate degradation rate,,did not observe any orthosteric activity,,moderate degradation rate,Stable,not observed,,,"Papp A→B at 2 h [6]: 3 ×10⁻⁶ cm/s; Papp B→A at 2 h [6]: 11.1 ×10⁻⁶ cm/s; microsomal CLint at 1 μM ([1]; mouse, liver microsomes): 26.6 µL/min/mg; Papp at 4 h, 10 μM (PAMPA; PAMPA, pH 7.4): 1.1 ×10⁻⁶ cm/s; microsomal CLint at 1 μM ([2]; human, liver microsomes): 49.4 µL/min/mg; solubility kinetic at 4 h (physchem): 168 µM"
"CC(=O)NCCc1c[nH]c2ccc(O)cc12 [NAS, N-acetylserotonin]",8.86 10^−6·cm/s,8.00 10^−6·cm/s,1.5 μL·min^−1·mgprotein^−1,very good metabolic stability,<0.01 10^−6·cm/s,did not observe any orthosteric activity,0.3 μL·min^−1·mgprotein^−1,very good metabolic stability,Stable,not observed,,404 µM,
Brain-derived neurotrophic factor (ligand),,,,,,,,,,,,,"EC50 of TrkB phosphorylation (Y706) by enzyme-linked fixed-cell immunoassay (ELFI) in SN56 T48 cells overexpressing TrkB; BDNF 0.01-10 nM, 15 min [7]: 4 nM; Kd [8]: 93 nM"
O=C1NCCCC1C(=O)NCCc1c[nH]c2ccc(O)cc12 (centres unmarked) [HIOC],1.11 10^−6·cm/s,2.29 10^−6·cm/s,2.1 μL·min^−1·mgprotein^−1,very good metabolic stability,1.24 10^−6·cm/s,did not observe any orthosteric activity,,very good metabolic stability,Stable,not observed,437 µM,,
